From patent publication US7232835B2, “3,6-Disubstituted azabicyclo derivatives as muscarinic receptor antagonists” (Ranbaxy Laboratories Limited, priority 2002, dated 2007) come the findings set out here.

One experiment concerns the target T1, M2 muscarinic receptor (Rattus norvegicus, UniProt P10980).
T1 construct: Submandibular glands and heart were isolated and placed in ice cold homogenising buffer; from tissue; host or cells: rat heart membrane homogenate
T1 sequence (P10980 1-466): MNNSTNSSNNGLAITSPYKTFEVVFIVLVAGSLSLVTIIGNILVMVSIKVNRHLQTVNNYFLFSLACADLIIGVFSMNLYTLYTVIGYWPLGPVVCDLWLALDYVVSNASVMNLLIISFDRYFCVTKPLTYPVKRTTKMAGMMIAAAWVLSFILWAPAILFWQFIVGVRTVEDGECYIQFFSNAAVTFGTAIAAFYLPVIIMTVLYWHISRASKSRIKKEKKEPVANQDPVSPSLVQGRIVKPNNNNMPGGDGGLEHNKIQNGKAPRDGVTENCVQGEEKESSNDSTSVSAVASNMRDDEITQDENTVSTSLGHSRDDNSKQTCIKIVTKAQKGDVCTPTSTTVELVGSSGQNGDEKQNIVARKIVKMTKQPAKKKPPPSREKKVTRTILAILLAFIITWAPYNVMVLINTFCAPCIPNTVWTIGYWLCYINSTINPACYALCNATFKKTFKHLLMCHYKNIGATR
Nature of the experiment: [3H]-N-methylscopolamine radioligand binding assay, rat heart membranes.

The next experiment deals with T2, M3 muscarinic receptor (Rattus norvegicus, UniProt P08483).
T2 construct: Submandibular glands and heart were isolated and placed in ice cold homogenising buffer; from tissue; host or cells: rat submandibular gland membrane homogenate
Briefly: [3H]-N-methylscopolamine radioligand binding assay, rat submandibular gland membranes. Set-up: Receptor Binding Assay Selectivity: reference not given here.

For a further experiment, the system named is isolated rat bladder. Briefly: tissue or blood. Type of experiment: cell-based. As to conditions: rat bladder strips, antagonism of carbachol contraction.
[1] abbreviates: Table III, rat heart, [3H]NMS, read-out: M2 Ki (nm).
Setting [2] is: Table III, rat submandibular gland, [3H]NMS, read-out: M3 Ki (nm).
[3] abbreviates: Table III, read-out: Rat Bladder pKB (converted).
Where [4] appears, read: Table III, rat heart, [3H]NMS, read-out: M2 pKi (converted).
The mark [5] stands for this setting: Table II, rat heart, [3H]NMS, read-out: Receptor Binding Assay Ki (nM) M2.
Where [6] appears, read: Table II, rat submandibular gland, [3H]NMS, read-out: Receptor Binding Assay Ki (nM) M 3.
Setting [7] is: Table II, read-out: Functional Assay KB.
The mark [8] stands for this setting: Table III, rat submandibular gland, [3H]NMS, read-out: M3 Pki (converted).
The mark [9] stands for this setting: Receptor Binding Assay Ki (nM) M 3.

Molecules are shown by their SMILES. Where two headings read alike, the source gives them in different places.

T2 sequence (P08483 whole entry): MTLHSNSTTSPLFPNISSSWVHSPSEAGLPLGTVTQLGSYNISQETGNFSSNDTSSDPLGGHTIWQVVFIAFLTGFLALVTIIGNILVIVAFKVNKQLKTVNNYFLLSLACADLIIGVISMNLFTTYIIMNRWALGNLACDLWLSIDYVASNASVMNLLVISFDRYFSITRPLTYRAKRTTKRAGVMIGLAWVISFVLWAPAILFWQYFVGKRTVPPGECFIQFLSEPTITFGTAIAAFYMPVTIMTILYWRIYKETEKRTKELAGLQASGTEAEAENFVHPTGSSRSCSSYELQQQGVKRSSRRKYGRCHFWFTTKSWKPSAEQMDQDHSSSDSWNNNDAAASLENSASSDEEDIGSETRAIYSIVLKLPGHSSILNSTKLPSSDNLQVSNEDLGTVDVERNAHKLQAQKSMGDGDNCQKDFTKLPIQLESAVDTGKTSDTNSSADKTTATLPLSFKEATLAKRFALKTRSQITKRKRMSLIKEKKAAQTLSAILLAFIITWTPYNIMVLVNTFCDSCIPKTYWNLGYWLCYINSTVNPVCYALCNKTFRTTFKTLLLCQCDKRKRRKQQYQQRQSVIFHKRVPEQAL

As for `O=C(NC1C2CN(Cc3c(F)cccc3F)CC21)C(O)(c1ccccc1)C1CCCCC1` (stereo not drawn) [Compound No. 25, (1α,5α,6α)-6-N-(3-azabicyclo[3.1.0]hexyl-3-(2,6-difluorobenzyl))-2-cyclohexyl-2-hydroxy-2-phenyl acetamide], the values for the Ki at M2 muscarinic receptor (setting [1]) and at M3 muscarinic receptor (setting [2]) were more than 1000 nM and 1700 nM, respectively. Also, the Kb in the experiment with isolated rat bladder (setting [3]) is 288 nM.

On to `C#CCN1CC2C(C1)C2NC(=O)C(O)(c1ccccc1)C1CCCCC1` (stereo not drawn) [Compound No. 35, (1α,5α,6α)-6-N-(3-azabicyclo[3.1.0]hexyl-3-(2-propargyl))-2-cyclohexyl-2-hydroxy-2-phenyl acetamide], for which the values for the Ki at M2 muscarinic receptor (setting [1]), at M2 muscarinic receptor (setting [4]) and on M3 muscarinic receptor (setting [2]) were 1180 nM, more than 1000 nM and 429 nM, respectively. Moreover, in the experiment on isolated rat bladder (setting [3]), the Kb was 24.5 nM.

For `O=C(N[C@H]1[C@@H]2CN(C3CC3)C[C@@H]21)C(O)(c1ccccc1)C1CCCCC1` (stereo partly drawn) [Compound No. 38, (1α,5α,6α)-6-N-(3-azabicyclo[3.1.0]hexyl-3-cyclopropyl)-2-cyclohexyl-2-hydroxy-2-phenyl acetamide], the values for the Ki on M2 muscarinic receptor (setting [1]) and at M3 muscarinic receptor (setting [2]) were more than 1000 nM and 1560 nM, respectively. In addition, in the experiment on isolated rat bladder (setting [3]), the Kb was 288 nM.

For `CC(C)=CCCN1C[C@@H]2[C@H](C1)[C@H]2NC(=O)C(O)(c1ccccc1)C1CCCCC1` (stereo partly drawn) [Compound No. 41, (1α,5α,6α)-6-N-(3-azabicyclo[3.1.0]hexyl-3-(4-methyl-3-pentenyl))-2-cyclohexyl-2-hydroxy-2-phenyl acetamide], the Ki came to 2940 nM on M2 muscarinic receptor (setting [5]), 2940 nM on M2 muscarinic receptor (setting [1]), 47 nM on M3 muscarinic receptor (setting [6]) and 47 nM on M3 muscarinic receptor (setting [2]). In addition, the “Receptor Binding Assay Selectivity” value at M3 muscarinic receptor (Table II, ratio M2 Ki / M3 Ki) came to 62.64. The Kb in the experiment with isolated rat bladder (setting [7]) was 32.4 nM; with isolated rat bladder (setting [3]), 20.4 nM.

On to `O=C(N[C@H]1[C@@H]2CN(Cc3ccc4c(c3)OCO4)C[C@@H]21)C(O)(c1ccccc1)C1CCCCC1` (stereo partly drawn) [Compound No. 42, (1α,5α,6α)-6-N-(3-azabicyclo[3.1.0]hexyl-3-(3,4-methylenedioxybenzyl))-2-cyclohexyl-2-hydroxy-2-phenyl acetamide], for which the results for the Ki at M2 muscarinic receptor (setting [1]), on M3 muscarinic receptor (setting [2]) and on M3 muscarinic receptor (setting [8]) were 2200 nM, 55 nM and 56.2 nM, respectively. Further, the Kb with isolated rat bladder (setting [3]) is 75.9 nM.

With `Cc1ccc(S(=O)(=O)NC(=O)N2C[C@@H]3[C@H](C2)[C@H]3NC(=O)C(O)(c2ccccc2)C2CCCCC2)cc1` (stereo partly drawn) [Compound No. 49, (1α,5α,6α)-6-N-(3-azabicyclo[3.1.0]hexyl-3-(4-methylphenyl-1-sulphonamide)urea)-2-cyclohexyl-2-hydroxy-2-phenyl acetamide], the results for the Ki at M2 muscarinic receptor (setting [1]) and at M3 muscarinic receptor (setting [2]) were more than 1000 nM and 1000 nM, respectively. Moreover, the Kb in the experiment on isolated rat bladder (setting [3]) is 631 nM.

As to `Cc1ccc(C(O)(C(=O)NC2C3CN(Cc4ccccc4)CC32)C2CCCCC2)cc1` (stereo not drawn) [Compound No. 50, (1α,5α,6α)-6-N-(3-azabicyclo[3.1.0]hexyl-3-benzyl)-2-cyclohexyl-2-hydroxy-2-(4-methylphenyl)acetamide], the results for the Ki at M2 muscarinic receptor (setting [1]) and on M3 muscarinic receptor (setting [2]) were more than 1000 nM and 1200 nM, respectively. Besides, in the experiment with isolated rat bladder (setting [3]), the Kb is 138 nM.

As for `O=C(N[C@H]1[C@@H]2CN(Cc3ccccc3)C[C@@H]21)C(O)(c1ccc(Oc2ccccc2)cc1)C1CCCCC1` (stereo partly drawn) [Compound No. 52, (1α,5α,6α)-6-N-(3-azabicyclo[3.1.0]hexyl-3-benzyl)-2-cyclohexyl-2-hydroxy-2-(4-phenoxyphenyl)acetamide], the Ki at M2 muscarinic receptor (setting [1]) is more than 1000 nM; at M3 muscarinic receptor (setting [2]) it was 370 nM. Moreover, the Kb with isolated rat bladder (setting [3]) was 3090 nM.

Consider `COc1ccc(C(O)(C(=O)NC2C3CN(CCC=C(C)C)CC32)C2CCCCC2)cc1` (stereo not drawn) [Compound No. 57, (1α,5α,6α)-6-N-(3-azabicyclo[3.1.0]hexyl-3-(4-methyl-3-pentenyl))-2-cyclohexyl-2-hydroxy-2-(4-methoxyphenyl)acetamide], for which the Ki on M2 muscarinic receptor (setting [1]) was more than 1000 nM; on M3 muscarinic receptor (setting [2]) it was 240 nM. Further, the Kb in the experiment with isolated rat bladder (setting [3]) is 1860 nM.

On to `O=C(N[C@H]1[C@@H]2CN(Cc3ccccc3)C[C@@H]21)C(O)(c1ccccc1)C1CCCC1` (some centres unmarked) [Compound No. 64], for which the results for the Ki at M2 muscarinic receptor (setting [1]), at M2 muscarinic receptor (setting [4]) and on M3 muscarinic receptor were 3000 nM, 2510 nM and 68 nM, respectively. Also, the Kb with isolated rat bladder (setting [3]) was 27.5 nM.

Take `CC(C)=CCCN1CC2C(C1)C2NC(=O)C(O)(c1ccccc1)C1CCCC1` (stereo not drawn) [Compound No. 65, (1α,5α,6α)-6-N-(3-azabicyclo[3.1.0]hexyl-3-(4-methyl-3-pentenyl))-2-cyclopentyl-2-hydroxy-2-phenyl acetamide]: the Ki on M2 muscarinic receptor (setting [5]) was 1370 nM; on M2 muscarinic receptor (setting [1]), 1370 nM; at M2 muscarinic receptor (setting [4]), 1350 nM; at M3 muscarinic receptor (setting [6]) it was 33 nM; on M3 muscarinic receptor (setting [2]), 33 nM; at M3 muscarinic receptor (setting [8]), 29.5 nM. Moreover, the “Receptor Binding Assay Selectivity” value on M3 muscarinic receptor (Table II, ratio M2 Ki / M3 Ki) is recorded as 41.52. Besides, the Kb with isolated rat bladder (setting [7]) is 4 nM; in the experiment on isolated rat bladder (setting [3]), 3.98 nM.

In the case of `O=C(NC1C2CN(CCc3ccc4c(c3)OCO4)CC21)C(O)(c1ccccc1)C1CCCC1` (centres unmarked) [Compound No. 66], the Ki at M2 muscarinic receptor (setting [5]) was 237 nM; on M2 muscarinic receptor (setting [1]) it was 182 nM; at M2 muscarinic receptor (setting [4]) it was 115 nM; on M3 muscarinic receptor (M3 Ki (nm)), 18.4 nM; on M3 muscarinic receptor (M3 Pki), 15.5 nM; at M3 muscarinic receptor (setting [9]) it was 18.4 nM. In addition, the “Receptor Binding Assay Selectivity” value on M3 muscarinic receptor turned out to be 12.88. The Kb was 5 nM in the experiment with isolated rat bladder (setting [7]) and 3.24 nM in the experiment on isolated rat bladder (setting [3]).

Consider `O=C(NC1C2CN(CCc3ccccc3)CC21)C(O)(c1ccccc1)C1CCCC1` (stereo not drawn) [Compound No. 67, (1α,5α,6α)-6-N-(3-azabicyclo[3.1.0]hexyl-3-(2-phenylethyl))-2-cyclopentyl-2-hydroxy-2-phenyl acetamide], for which the Ki at M2 muscarinic receptor (setting [1]) was 1420 nM; on M3 muscarinic receptor (setting [8]), 38.9 nM. The Kb in the experiment on isolated rat bladder (setting [3]) is 38 nM.

For `O=C(NC1C2CN(Cc3ccccc3)CC21)C(O)(c1ccccc1)C1CCCCCC1` (stereo not drawn) [Compound No. 72, (1α,5α,6α)-6-N-(3-azabicyclo[3.1.0]hexyl-3-benzyl)-2-cycloheptyl-2-hydroxy-2-phenyl acetamide], the Ki on M2 muscarinic receptor (M2 Ki (nm)) was 1530 nM; at M3 muscarinic receptor (setting [8]), 20.9 nM. Moreover, the Kb in the experiment on isolated rat bladder (setting [3]) was 66.1 nM.

Turning to `CC(C)=CCCN1C[C@@H]2[C@H](C1)[C@H]2NC(=O)[C@](O)(c1ccccc1)C1CCCC1` [Compound No. 81, (2R)-(1α,5α,6α)-6-N-(3-azabicyclo[3.1.0]hexyl-3-(4-methyl-3-pentenyl))-2-cyclopentyl-2-hydroxy-2-phenyl acetamide], the Ki on M2 muscarinic receptor (setting [5]) is 564 nM; at M2 muscarinic receptor (setting [1]) it was 564 nM; on M2 muscarinic receptor (setting [4]), 525 nM; on M3 muscarinic receptor (setting [6]) it was 12.4 nM; at M3 muscarinic receptor (setting [2]), 12.4 nM; on M3 muscarinic receptor (setting [8]) it was 11.5 nM. The “Receptor Binding Assay Selectivity” value at M3 muscarinic receptor (Table II, ratio M2 Ki / M3 Ki) is on record as 45.48. For the same compound, the Kb in the experiment with isolated rat bladder (setting [7]) is 7.95 nM; with isolated rat bladder (setting [3]), 11.2 nM.

As to `O=C(N[C@H]1[C@@H]2CN(CCc3ccc4c(c3)OCO4)C[C@@H]21)[C@](O)(c1ccccc1)C1CCCC1` [Compound No. 82, (2R)-(1α,5α,6α)-6-N-(3-azabicyclo[3.1.0]hexyl-3-(3,4-methylenedioxyphenyl)ethyl)-2-cyclopentyl-2-hydroxy-2-phenyl acetamide], the Ki on M2 muscarinic receptor (setting [5]) was determined as 646 nM; at M2 muscarinic receptor (setting [1]) it was 646 nM; on M3 muscarinic receptor (M3 Ki (nm)) it was 11.7 nM; at M3 muscarinic receptor (setting [9]), 11.7 nM. Also, the “Receptor Binding Assay Selectivity” value on M3 muscarinic receptor worked out at 5. In addition, the results for the Kb in the experiment on isolated rat bladder (setting [7]) and with isolated rat bladder (setting [3]) were 9.12 nM and 0.759 nM, respectively.
